The results in this text go back to patent US4347319A, “Microbiological epoxidation process” (priority 1980, dated 1982).

Each structure is given as a SMILES string. Read-outs that look alike come from different tables or passages of the source.

Experiment [1] relates to Methylobacter vinelandii (CRL M5Y) NRRL B-11,218. In words: Oxidation by washed cell suspensions of methane-grown cells. The format is cell-based. The note with it: for Oxidative Conversion Rates: methane-grown washed cells, 30° C., methane to methanol, alkene to 1,2-epoxide. The essentials: (§1)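 Products were quantified by gas chromatography (flame ionization) in headspace/liquid samples taken periodically from sealed vials. Each vial held 2 mg washed methane-grown cells in 0.15 M phosphate pH 7.0 under a 1:1 substrate/oxygen gas phase, shaken at 30 °C.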

Experiment [2] deals with Methylosinus sporium (CRL 16 PM2) NRRL B-11,203. The description is as above. The format is cell-based. The essentials: as §1
Experiment [3] has as its system Methylomonas agile (CRL 22 PM9) NRRL B-11,209. The description is as above. The format is cell-based. The essentials:
as §1

Experiment [4] concerns Methylomonas albus (CRL M8Y) NRRL B-11,207. The experiment is described as above. The format is cell-based. The essentials: as §1
Experiment [5] concerns cell fractions of Methylobacterium sp. (CRL-26, NRRL B-11,222). In words: Oxidation by cell fractions P(40), P(80), S(80). The format is biochemical. As to conditions: for Conversion Rate: particulate P(40) fraction, n-propane to 2-propanol, n-butane to 2-butanol; for Oxidizing Activity (rate of oxidation) in cell fraction: propylene to propylene oxide, methane to methanol, 30° C. A digest of the protocol: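 Cells washed and French-press disrupted in 25 mM K phosphate pH 7.0 with 5 mM MgCl2; particulate P(40), P(80) and soluble S(80) fractions from 40,000×g and 80,000×g spins. Methane or propylene (1:1 with O2) oxidised at 30° C with NADH; methanol/propylene oxide by GC; activity as μmoles product/h/mg protein.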

Experiment [6] addresses T1, cell fractions of Methylococcus capsulatus (Texas, ATCC 19,069) (Methylococcus capsulatus, UniProt G1UBD1+Q603F1+Q607G3).
T1 sequence (G1UBD1 33-414): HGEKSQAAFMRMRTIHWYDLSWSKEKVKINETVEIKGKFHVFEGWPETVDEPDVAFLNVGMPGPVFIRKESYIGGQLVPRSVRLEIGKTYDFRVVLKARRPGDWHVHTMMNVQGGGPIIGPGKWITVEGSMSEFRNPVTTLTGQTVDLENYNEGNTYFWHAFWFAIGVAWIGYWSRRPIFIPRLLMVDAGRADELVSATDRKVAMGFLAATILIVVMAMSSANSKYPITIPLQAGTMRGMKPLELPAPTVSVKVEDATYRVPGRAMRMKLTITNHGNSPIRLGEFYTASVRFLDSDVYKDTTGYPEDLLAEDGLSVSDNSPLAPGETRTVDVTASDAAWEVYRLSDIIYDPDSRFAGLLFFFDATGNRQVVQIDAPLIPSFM
T1 sequence (Q607G3 1-247): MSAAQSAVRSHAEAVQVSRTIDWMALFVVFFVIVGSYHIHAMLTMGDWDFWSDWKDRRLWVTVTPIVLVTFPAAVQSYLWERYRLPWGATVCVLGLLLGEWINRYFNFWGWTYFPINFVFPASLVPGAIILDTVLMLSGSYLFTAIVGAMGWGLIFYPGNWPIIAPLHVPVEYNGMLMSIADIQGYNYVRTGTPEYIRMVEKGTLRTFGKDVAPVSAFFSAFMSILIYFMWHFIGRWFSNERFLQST
T1 sequence (Q603F1 1-260): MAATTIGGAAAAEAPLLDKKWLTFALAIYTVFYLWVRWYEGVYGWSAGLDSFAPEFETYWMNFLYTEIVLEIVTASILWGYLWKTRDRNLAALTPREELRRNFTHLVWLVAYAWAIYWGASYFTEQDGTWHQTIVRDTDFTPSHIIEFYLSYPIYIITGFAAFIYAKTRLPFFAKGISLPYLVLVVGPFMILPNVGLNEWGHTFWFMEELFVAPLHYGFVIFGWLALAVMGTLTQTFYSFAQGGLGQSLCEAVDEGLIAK
In words: Oxidation by cell fractions P(40), P(80), S(80). As to conditions: for Conversion Rate: particulate P(40) fraction, n-propane to 2-propanol, n-butane to 2-butanol; for Oxidizing Activity (rate of oxidation) in cell fraction: propylene to propylene oxide, methane to methanol, 30° C.; for % Distribution in Cell Fraction: propylene-epoxidizing / methane-hydroxylating activity. The format is biochemical.

Setting [7] is: methane-grown cells, 2-butanol to 2-butanone.
Setting [8] is: methane-grown washed cells, 30° C., methane to methanol, alkene to 1,2-epoxide.

In the case of `CCC(C)O` (centres unmarked) [2-Butanol], in experiment [1] (setting [7]), the “Conversion Rate to Ketone, 2 hrs.” value is reported as 2 μmole/2 mg protein and the “Conversion Rate to Ketone, 20 hrs.” value was found to be 18 μmole/2 mg protein.

On to `C=CC=C` [Butadiene], for which the “Oxidative Conversion Rates” value in experiment [2] (setting [8]) is recorded as 2.5 μmole/hr/mg protein; in experiment [3] (setting [8]), 2.0 μmole/hr/mg protein; in experiment [4] (setting [8]), 3.0 μmole/hr/mg protein.

With `CCCC` [Butane], the “Conversion Rate” value in experiment [5] is reported as 0.61 μmoles/hr/2.0mg. of protein; in experiment [6] it was 0.92 μmoles/hr/2.0mg. of protein.

With `C` [Methane], the “Oxidative Conversion Rates” value turned out to be 1.0 in experiment [2], 0.6 in experiment [3], 1.5 in experiment [4] and 0.9 μmole/hr/mg protein in experiment [1]. Besides, the “Oxidizing Activity (rate of oxidation) in cell fraction” value was 2.7 μ moles of products formed per in experiment [5] (P(40)); 2.8 μ moles of products formed per in experiment [5] (P(80)); 0 μ moles of products formed per in experiment [5] (S(80)); 3.8 μ moles of products formed per in experiment [6] (P(40)); 3.9 μ moles of products formed per in experiment [6] (P(80)); 0 μ moles of products formed per in experiment [6] (S(80)). Also, the “% Distribution in Cell Fraction” value in experiment [6] (P(40)) was found to be 90%; in experiment [6] (P(80)), 10%; in experiment [6] (S(80)), 0%.

Take `CCC` [Propane]: the “Conversion Rate” value is on record as 1.0 μmoles/hr/2.0mg. of protein in experiment [5] and 1.2 μmoles/hr/2.0mg. of protein in experiment [6].

Regarding `C=CC` [Propylene], the “Oxidative Conversion Rates” value in experiment [2] (setting [8]) turned out to be 3.2 μmole/hr/mg protein; in experiment [3] (setting [8]), 1.6 μmole/hr/mg protein; in experiment [4] (setting [8]), 2.5 μmole/hr/mg protein; in experiment [1], 1.9 μmole/hr/mg protein. Also, the “Oxidizing Activity (rate of oxidation) in cell fraction” value in experiment [5] (P(40)) is 1.2 μ moles of products formed per; in experiment [5] (P(80)) it was 1.1 μ moles of products formed per; in experiment [5] (S(80)) it was 0 μ moles of products formed per; in experiment [6] (P(40)), 2.6 μ moles of products formed per; in experiment [6] (P(80)), 2.0 μ moles of products formed per; in experiment [6] (S(80)) it was 0 μ moles of products formed per. Moreover, the “% Distribution in Cell Fraction” value was found to be 89% in experiment [6] (P(40)), 11% in experiment [6] (P(80)) and 0% in experiment [6] (S(80)).
